In brackets after ≈: the same amount, converted by molar mass.
Assays:
Format in all cases: cell-based, human
NK cells [1] = test: CD69 expression in NK cells of TPP-treated PBMCs (flow cytometry); conditions: 1650 μg/mL
Protocol: Cells were washed after 3 h treatment and re-plated in a 48-well plate at 1 million cells/well/mL with and without the presence of 10 μg/mL polyinosinic:polycytidylic acid (poly I:C) or lipopolysaccharide (LPS). After a 67 h incubation, supernatants were taken for secreted cytokine analysis. Cells were plated onto a 96-well plate at 1×10^6/mL and further incubated for 4 h with 200 μL of media with Golgiplug (1 μg/mL) (BD Biosciences, San Jose, Calif.) to measure intracellular cytokines. Cells were then harvested, washed and surface stained for CD56-PE and CD2-FITC, CD69-APC monoclonal antibodies (mAB) for 30 min at 4° C. After washing, cells were fixed and permeabilized with BD Biosciences Cytofix/Cytoperm buffer for 20 min on ice in the dark. […] Forward scatter, side scatter, fluorescence intensity and percent positivity were measured after acquiring 100,000 cells per sample by flow cytometry (BD Biosciences, San Jose, Calif.), and the data were analyzed using Cell Quest (BD Biosciences, San Jose, Calif.) and Flow Jo (Tree Star, Ashland, Oreg.) software.
CD69 is an early inducible cell surface glycoprotein expressed during lymphoid activation and is involved in NK cell function. PBMCs were treated with TPPs, and CD69 expression on NK cell population was analyzed by flow cytometry after poly I:C and LPS stimulation.

PBMCs [2] = test: Secreted cytokines by CBA after 24 h LPS stimulation (modified protocol)
Protocol: (§1) Previous methods utilized stimulation with TLR agonists (LPS is for […] and Poly I:C is for TLR3) for 67 h to measure intracellular cytokines and secreted cytokines.
To measure immunomodulatory effects, PBMCs were stimulated with LPS for different time periods and the secreted cytokines were measured by cytometric bead array (CBA) method. To establish LPS stimulation time, PBMCs were exposed to LPS stimulation for 4 h, 24 h, 48 h and 72 h and secreted cytokines were measured.

PBMCs [3] = test: Cell death / viability of PBMCs by 7AAD staining (flow cytometry)
Excerpt: Cell death measured by 7-Aminoactinomycin D (7AAD) staining method is simple and more reliable as 7AAD intercalates into double-stranded nucleic acids and can penetrate cell membranes of dying or dead cells.

PBMCs [4] = test: Cytolytic assay: killing of CFSE-labeled K562 target cells by TPP-treated PBMCs
Protocol: The K562 cell line was used as a target in a cytolytic assay. K562 cells were purchased from ATCC (Manassas Va., USA) and grown in RPMI complete media. One vial of cryopreserved PBMCs was thawed and washed, and a live cell count was taken. Different concentrations of TPPs were prepared in 100 μL media. 1.5×10^6 PBMCs in a 50 μL volume were added to each well and incubated for 1.5 h at 37° C. in 96-well round bottom plates. K562 target cells were labeled with carboxy fluorescein succinimidyl ester (CFSE) and added at a density of 100,000 cells/well (target:effector ratio is 1:15). Cell co-cultures were incubated at 37° C. for an additional 4 h. Immediately after the incubation period, cells were stained with 7AAD (which labels the dead cells) and the killing of CFSE-labeled K562 target cells was evaluated after 7AAD staining by flow cytometric analysis (BD Biosciences, San Jose, Calif.). Flow data were analyzed using Flow Jo software (Tree Star, Ashland, Oreg.).

T cells = test: Intracellular TNF-α and IFN-γ positive T cells in TPP-treated PBMCs stimulated with poly I:C or LPS (flow cytometry)
Protocol: Dosing was based on an equi-nicotine exposure paradigm. Cells were washed after 3 h treatment and re-plated in a 48-well plate at 1 million cells/well/mL with and without the presence of 10 μg/mL polyinosinic:polycytidylic acid (poly I:C) or lipopolysaccharide (LPS). After a 67 h incubation, supernatants were taken for secreted cytokine analysis. Cells were plated onto a 96-well plate at 1×10^6/mL and further incubated for 4 h with 200 μL of media with Golgiplug (1 μg/mL) (BD Biosciences, San Jose, Calif.) to measure intracellular cytokines. Cells were then harvested, washed and surface stained for CD56-PE and CD2-FITC, CD69-APC monoclonal antibodies (mAB) for 30 min at 4° C. After washing, cells were fixed and permeabilized with BD Biosciences Cytofix/Cytoperm buffer for 20 min on ice in the dark. Cells were then stained with anti-IFN-γ-PE, anti-TNF-α-APC and anti-perforin-FITC mAB and incubated for an additional 30 min on ice. After washing the cells, they were re-suspended in a total volume of 200 μL of 2% paraformaldehyde for FACS analysis. Forward scatter, side scatter, fluorescence intensity and percent positivity were measured after acquiring 100,000 cells per sample by flow cytometry (BD Biosciences, San Jose, Calif.), and the data were analyzed using Cell Quest (BD Biosciences, San Jose, Calif.) and Flow Jo (Tree Star, Ashland, Oreg.) software.
It was sought to evaluate intracellular cytokine levels in T cells after treating with combustible and non-combustible TPPs. In a first set of experiments, measured was the induction of intracellular TNF-α and IFN-γ by flow cytometry after PBMCs were treated with TPPs and stimulated with either poly I:C or LPS.
It was assessed whether the pretreatment of PBMCs with TPPs compromised their ability to produce TNF-α^+ cells when stimulated with poly I:C and LPS.
Evaluated also were changes in the number of IFN-γ^+ T cells with TPP treatment followed by poly I:C and LPS stimulation.

NK cells [5] = test: TNF-α+ NK cells in poly I:C- and LPS-stimulated PBMCs treated with TPPs
Protocol: Cells were washed after 3 h treatment and re-plated in a 48-well plate at 1 million cells/well/mL with and without the presence of 10 μg/mL polyinosinic:polycytidylic acid (poly I:C) or lipopolysaccharide (LPS). After a 67 h incubation, supernatants were taken for secreted cytokine analysis. Cells were plated onto a 96-well plate at 1×10^6/mL and further incubated for 4 h with 200 μL of media with Golgiplug (1 μg/mL) (BD Biosciences, San Jose, Calif.) to measure intracellular cytokines. Cells were then harvested, washed and surface stained for CD56-PE and CD2-FITC, CD69-APC monoclonal antibodies (mAB) for 30 min at 4° C. After washing, cells were fixed and permeabilized with BD Biosciences Cytofix/Cytoperm buffer for 20 min on ice in the dark. Cells were then stained with anti-IFN-γ-PE, anti-TNF-α-APC and anti-perforin-FITC mAB and incubated for an additional 30 min on ice. After washing the cells, they were re-suspended in a total volume of 200 μL of 2% paraformaldehyde for FACS analysis. Forward scatter, side scatter, fluorescence intensity and percent positivity were measured after acquiring 100,000 cells per sample by flow cytometry (BD Biosciences, San Jose, Calif.), and the data were analyzed using Cell Quest (BD Biosciences, San Jose, Calif.) and Flow Jo (Tree Star, Ashland, Oreg.) software.

PBMCs [6] = test: Intracellular cytokine-positive cells after 6 h LPS plus Golgiplug (modified protocol); conditions: total 6 h
Protocol: as §1

PBMCs and NK cells = test: Perforin levels in TPP-treated total PBMCs and NK cells; conditions: PBMC populations or NK cells
PBMCs [7] = test: IL-8 secretion by ELISA after LPS stimulation; conditions: 2 mg/mL
Protocol: Suppression of cytokines was also evident with nicotine. […] Next were measured IL-8 levels in the same samples as above using an ELISA assay.

SMILES: CN1CCCC1c1cccnc1 (centres unmarked) [nicotine]
- basal levels of the induction of CD69 relative to untreated cells (NK cells [1]): did not increase
- secreted cytokines (PBMCs [2]; LPS stimulation, 24 h): dose-dependent decrease
- secreted IL-6 (PBMCs [2]; highest concentration (4 mg/mL) tested, LPS 24 h): suppressed
- secreted IFN-γ (PBMCs [2]; range of concentrations up to 500 μg/mL of nicotine, LPS 24 h): significantly suppressed
- cell death (PBMCs [3]; 3 h, 2000 μg/mL): 8%
- cell death (PBMCs [3]; 24 h, 3,000 μg/mL nicotine, comparable to near 80%): comparable degree of cell death
- EC50 (PBMCs [3]; Homo sapiens, PBMC, 7AAD positive staining of PBMCs, 24 h assay, neat nicotine, read-out: EC50 (concentration at which 50% of the cells were no longer viable)): 1650 µg/mL (≈ 10.2 mM)
- target cell killing ability (PBMCs [4]; K562 targets, target:effector 1:15): did not reduce
- cell killing (K562 targets) (PBMCs [4]; low and high doses): did not interfere
- basal levels of TNF-α+ T cells (T cells; 1650 μg/mL, basal (unstimulated)): higher basal levels
- TNF-α+ T cell numbers (T cells; 10-1650 μg/mL, poly I:C and LPS stimulation): did not yield statistically significant differences
- IFN-γ+ T cells (cytokine-positive cells) (T cells; only at the highest concentrations, changes not statistically significant): Measurable suppression
- changes in TNF-α+ NK cells (NK cells [5]; higher dose (1650 μg/mL), after LPS stimulation): statistically significant reduction
- changes in TNF-α+ NK cells (NK cells [5]; lower doses (10 and 500 μg/mL)): did not induce statistically significant changes
- IFN-γ-positive cells, TNF-α-positive cells and MIP-1α-positive cells (PBMCs [6]): dose-dependent percent reduction
- changes in perforin levels (PBMCs and NK cells): did not result in statistically significant changes
- IL-8 secretion, suppressive effects (PBMCs [7]): significant

Source: patent US10309956B2, “Process for assessing risk of substance administration” (priority 2014, dated 2019)
